Earlier results in patent US20220175718A1, “TRANSDERMAL PHARMACEUTICAL FORMULATIONS FOR THE TREATMENT OF CANCER” (PIKE THERAPEUTICS, INC., priority 2020, published 2022).

Legend:
CB2 = CB2 (Homo sapiens, UniProt P34972); settings: for selectivity for CB2 over CB1: given as ×, fold or times
CB1 = CB1 (Homo sapiens, UniProt P21554)
Chain of CB1 (P21554 whole entry, species assumed): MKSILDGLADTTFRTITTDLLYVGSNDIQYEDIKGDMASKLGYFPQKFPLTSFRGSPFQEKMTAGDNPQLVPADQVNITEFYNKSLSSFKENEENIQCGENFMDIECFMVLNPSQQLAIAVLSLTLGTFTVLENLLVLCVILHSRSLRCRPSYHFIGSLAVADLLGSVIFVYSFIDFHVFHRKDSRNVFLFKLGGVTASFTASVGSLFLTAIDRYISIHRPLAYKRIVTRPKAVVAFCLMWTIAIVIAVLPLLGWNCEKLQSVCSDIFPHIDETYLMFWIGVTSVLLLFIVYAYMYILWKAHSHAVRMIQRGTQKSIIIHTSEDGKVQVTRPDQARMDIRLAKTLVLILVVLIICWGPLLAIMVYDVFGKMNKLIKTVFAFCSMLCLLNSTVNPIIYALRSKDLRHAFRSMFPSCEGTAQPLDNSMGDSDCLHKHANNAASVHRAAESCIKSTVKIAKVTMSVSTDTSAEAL

Chain of CB2 (P34972 whole entry, species assumed): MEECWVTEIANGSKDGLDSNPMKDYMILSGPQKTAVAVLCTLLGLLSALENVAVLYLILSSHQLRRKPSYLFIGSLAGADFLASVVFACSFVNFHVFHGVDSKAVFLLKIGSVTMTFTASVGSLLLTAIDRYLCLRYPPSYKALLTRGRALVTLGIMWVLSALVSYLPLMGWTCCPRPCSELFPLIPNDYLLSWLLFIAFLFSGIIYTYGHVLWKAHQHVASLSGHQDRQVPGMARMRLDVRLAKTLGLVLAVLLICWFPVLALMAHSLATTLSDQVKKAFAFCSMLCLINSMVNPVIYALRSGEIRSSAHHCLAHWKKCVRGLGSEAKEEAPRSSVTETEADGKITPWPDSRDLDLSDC

SMILES | selectivity for CB2 over CB1 (CB2) | Ki (CB1) | Ki (CB2)
CCCCCCC(C)(C)c1cc(O)c2c(c1)oc(=O)c1ccc(OC)cc12 [AM-1710] | 54 |  | 
CCCn1c(C)c(C(=O)c2ccc(C)c3ccccc23)c2ccccc21 [JWH-148] | more than 8 |  | 
CCCCCCC(C)(C)c1cc(OC)c2c(c1)OC(C)(C)C1CCC(O)CC21 (stereo not drawn) [JWH-350, 11-nor-1-methoxy-3-(1′,1′-dimethylheptyl)-9α-hydroxyhexahydrocannabinol] | 33 |  | 
CCCn1cc(C(=O)c2ccc(C)c3ccccc23)c2ccccc21 [JWH-120] | 173 |  | 
CCCCCn1cc(C(=O)c2cccc3cccc(Br)c23)c2ccccc21 [JWH-424] |  | 20.9 nM | 5.44 nM
CCCCCn1cc(C(=O)c2ccc(Cl)c3ccccc23)c2ccccc21 [JWH-398] |  | 2.3 nM | 2.8 nM
